This note sets out measurements from the NIST ThermoML archive (doi:10.1021/acs.jced.5b00051).

± gives the expanded uncertainty stated by the source.

One data set can be described thus: molar heat capacity at constant pressure. The settings on record: 291.15 K; 101.33 kPa; Liquid; Large sample (1 g) DSC.
With `CCCCCCCCOCCOCCOCCO` [2-[2-[2-(octyloxy)ethoxy]ethoxy]ethanol], the “molar heat capacity at constant pressure” value was determined as 570.4 ± 8.8 J/K/mol.
Turning to `CCCCOCCO` [2-butoxyethan-1-ol], the “molar heat capacity at constant pressure” value worked out at 269.5 ± 4.2 J/K/mol.
With `CCOCCO` [2-ethoxyethan-1-ol], the “molar heat capacity at constant pressure” value is on record as 208.6 ± 3.2 J/K/mol.
For `CCCOCCO` [2-propoxyethanol], the “molar heat capacity at constant pressure” value was found to be 238.3 ± 3.7 J/K/mol.

Still in this data set, the particulars now being: 293.15 K; 101.33 kPa; Liquid; Large sample (1 g) DSC.
With `CCCCCCOCCOCCO` [2-(2-hexyloxyethoxy)ethanol], the “molar heat capacity at constant pressure” value was 418.7 ± 6.5 J/K/mol.
Still for that read-out and setting: to `COCCOCCO` [2-(2-methoxyethoxy)ethanol] belongs 266.1 ± 4.1 J/K/mol.
`CCCOCCOCCO` [2-(2-propoxyethoxy)ethanol]: the “molar heat capacity at constant pressure” value is listed as 327.5 ± 5.1 J/K/mol.
Same read-out and setting: under `COCCOCCOCCO` [2-[2-(2-methoxyethoxy)ethoxy]ethanol] stands 355.5 ± 5.5 J/K/mol.
On the same count and under the same terms, to `CCCCCCCCOCCOCCOCCO` [2-[2-[2-(octyloxy)ethoxy]ethoxy]ethanol] belongs 571.3 ± 8.9 J/K/mol; to `CCCCOCCO` [2-butoxyethan-1-ol], 270.5 ± 4.2 J/K/mol; to `CCOCCO` [2-ethoxyethan-1-ol], 209.3 ± 3.2 J/K/mol.
As for `CCCOCCO` [2-propoxyethanol], the “molar heat capacity at constant pressure” value is on record as 239.2 ± 3.7 J/K/mol.

The same data set, now with this note: 295.15 K; 101.33 kPa; Liquid; Large sample (1 g) DSC.
Turning to `CCCCCCOCCOCCO` [2-(2-hexyloxyethoxy)ethanol], the “molar heat capacity at constant pressure” value was 419.6 ± 6.5 J/K/mol.
In the case of `COCCOCCO` [2-(2-methoxyethoxy)ethanol], the “molar heat capacity at constant pressure” value is listed as 266.6 ± 4.1 J/K/mol.
With `CCCOCCOCCO` [2-(2-propoxyethoxy)ethanol], the “molar heat capacity at constant pressure” value came to 328.2 ± 5.1 J/K/mol.
Consider `COCCOCCOCCO` [2-[2-(2-methoxyethoxy)ethoxy]ethanol], for which the “molar heat capacity at constant pressure” value came out at 355.9 ± 5.5 J/K/mol.
Same read-out and setting: under `CCCCCCCCOCCOCCOCCO` [2-[2-[2-(octyloxy)ethoxy]ethoxy]ethanol] stands 572.2 ± 8.9 J/K/mol.
For the compound `CCCCOCCO` [2-butoxyethan-1-ol], the “molar heat capacity at constant pressure” value was 271.5 ± 4.2 J/K/mol.
With `CCOCCO` [2-ethoxyethan-1-ol], the “molar heat capacity at constant pressure” value is given as 210 ± 3.3 J/K/mol.
For the compound `CCCOCCO` [2-propoxyethanol], the “molar heat capacity at constant pressure” value is reported as 240.1 ± 3.7 J/K/mol.

Still in this data set, the particulars now being: 297.15 K; 101.33 kPa; Liquid; Large sample (1 g) DSC.
With `CCCCCCOCCOCCO` [2-(2-hexyloxyethoxy)ethanol], the “molar heat capacity at constant pressure” value amounted to 420.5 ± 6.5 J/K/mol.
Turning to `COCCOCCO` [2-(2-methoxyethoxy)ethanol], the “molar heat capacity at constant pressure” value came to 267.1 ± 4.1 J/K/mol.
In the case of `CCCOCCOCCO` [2-(2-propoxyethoxy)ethanol], the “molar heat capacity at constant pressure” value was found to be 329 ± 5.1 J/K/mol.
On to `COCCOCCOCCO` [2-[2-(2-methoxyethoxy)ethoxy]ethanol], for which the “molar heat capacity at constant pressure” value came out at 356.3 ± 5.5 J/K/mol.
`CCCCCCCCOCCOCCOCCO` [2-[2-[2-(octyloxy)ethoxy]ethoxy]ethanol]: the “molar heat capacity at constant pressure” value is reported as 573.2 ± 8.9 J/K/mol.
As for `CCCCOCCO` [2-butoxyethan-1-ol], the “molar heat capacity at constant pressure” value came to 272.5 ± 4.2 J/K/mol.
Still for that read-out and setting: to `CCOCCO` [2-ethoxyethan-1-ol] belongs 210.7 ± 3.3 J/K/mol.
With `CCCOCCO` [2-propoxyethanol], the “molar heat capacity at constant pressure” value worked out at 240.9 ± 3.7 J/K/mol.

The data set is the same for the next values; noted with them: 298.15 K; 101.33 kPa; Liquid; Large sample (1 g) DSC.
On to `CCCCCCOCCOCCO` [2-(2-hexyloxyethoxy)ethanol], for which the “molar heat capacity at constant pressure” value is given as 421 ± 6.5 J/K/mol.
Take `COCCOCCO` [2-(2-methoxyethoxy)ethanol]: the “molar heat capacity at constant pressure” value is 267.4 ± 4.1 J/K/mol.
Take `CCCOCCOCCO` [2-(2-propoxyethoxy)ethanol]: the “molar heat capacity at constant pressure” value was determined as 329.4 ± 5.1 J/K/mol.
In the case of `COCCOCCOCCO` [2-[2-(2-methoxyethoxy)ethoxy]ethanol], the “molar heat capacity at constant pressure” value was 356.6 ± 5.5 J/K/mol.
As to `CCCCCCCCOCCOCCOCCO` [2-[2-[2-(octyloxy)ethoxy]ethoxy]ethanol], the “molar heat capacity at constant pressure” value is reported as 573.7 ± 8.9 J/K/mol.
`CCCCOCCO` [2-butoxyethan-1-ol]: the “molar heat capacity at constant pressure” value is listed as 273 ± 4.2 J/K/mol.
For `CCOCCO` [2-ethoxyethan-1-ol], the “molar heat capacity at constant pressure” value was 211.1 ± 3.3 J/K/mol.
Regarding `CCCOCCO` [2-propoxyethanol], the “molar heat capacity at constant pressure” value is 241.4 ± 3.7 J/K/mol.

The data set is the same for the next values; noted with them: 299.15 K; 101.33 kPa; Liquid; Large sample (1 g) DSC.
As for `CCCCCCOCCOCCO` [2-(2-hexyloxyethoxy)ethanol], the “molar heat capacity at constant pressure” value is 421.4 ± 6.5 J/K/mol.
`COCCOCCO` [2-(2-methoxyethoxy)ethanol]: the “molar heat capacity at constant pressure” value is 267.6 ± 4.1 J/K/mol.
On the same count and under the same terms, to `CCCOCCOCCO` [2-(2-propoxyethoxy)ethanol] belongs 329.7 ± 5.1 J/K/mol.
For the compound `COCCOCCOCCO` [2-[2-(2-methoxyethoxy)ethoxy]ethanol], the “molar heat capacity at constant pressure” value came to 356.8 ± 5.5 J/K/mol.
For the compound `CCCCCCCCOCCOCCOCCO` [2-[2-[2-(octyloxy)ethoxy]ethoxy]ethanol], the “molar heat capacity at constant pressure” value was 574.2 ± 8.9 J/K/mol.
As to `CCCCOCCO` [2-butoxyethan-1-ol], the “molar heat capacity at constant pressure” value was determined as 273.5 ± 4.2 J/K/mol.
With `CCOCCO` [2-ethoxyethan-1-ol], the “molar heat capacity at constant pressure” value came out at 211.4 ± 3.3 J/K/mol.
For the compound `CCCOCCO` [2-propoxyethanol], the “molar heat capacity at constant pressure” value came out at 241.8 ± 3.7 J/K/mol.

The data set is the same for the next values; noted with them: 301.15 K; 101.33 kPa; Liquid; Large sample (1 g) DSC.
With `CCCCCCOCCOCCO` [2-(2-hexyloxyethoxy)ethanol], the “molar heat capacity at constant pressure” value worked out at 422.3 ± 6.5 J/K/mol.
With `COCCOCCO` [2-(2-methoxyethoxy)ethanol], the “molar heat capacity at constant pressure” value worked out at 268.2 ± 4.2 J/K/mol.
The same measure, in the same setting: under `CCCOCCOCCO` [2-(2-propoxyethoxy)ethanol] stands 330.5 ± 5.1 J/K/mol; under `COCCOCCOCCO` [2-[2-(2-methoxyethoxy)ethoxy]ethanol], 357.2 ± 5.5 J/K/mol.
On the same count and under the same terms, to `CCCCCCCCOCCOCCOCCO` [2-[2-[2-(octyloxy)ethoxy]ethoxy]ethanol] belongs 575.2 ± 8.9 J/K/mol; to `CCCCOCCO` [2-butoxyethan-1-ol], 274.5 ± 4.3 J/K/mol; to `CCOCCO` [2-ethoxyethan-1-ol], 212.1 ± 3.3 J/K/mol.
With `CCCOCCO` [2-propoxyethanol], the “molar heat capacity at constant pressure” value amounted to 242.7 ± 3.8 J/K/mol.

Still in this data set, the particulars now being: 303.15 K; 101.33 kPa; Liquid; Large sample (1 g) DSC.
As for `CCCCCCOCCOCCO` [2-(2-hexyloxyethoxy)ethanol], the “molar heat capacity at constant pressure” value stood at 423.2 ± 6.6 J/K/mol.
Still for that read-out and setting: under `COCCOCCO` [2-(2-methoxyethoxy)ethanol] stands 268.7 ± 4.2 J/K/mol; under `CCCOCCOCCO` [2-(2-propoxyethoxy)ethanol], 331.3 ± 5.1 J/K/mol; under `COCCOCCOCCO` [2-[2-(2-methoxyethoxy)ethoxy]ethanol], 357.7 ± 5.5 J/K/mol.
With `CCCCCCCCOCCOCCOCCO` [2-[2-[2-(octyloxy)ethoxy]ethoxy]ethanol], the “molar heat capacity at constant pressure” value was determined as 576.2 ± 8.9 J/K/mol.
On to `CCCCOCCO` [2-butoxyethan-1-ol], for which the “molar heat capacity at constant pressure” value came to 275.5 ± 4.3 J/K/mol.
With `CCOCCO` [2-ethoxyethan-1-ol], the “molar heat capacity at constant pressure” value was 212.8 ± 3.3 J/K/mol.
Still for that read-out and setting: to `CCCOCCO` [2-propoxyethanol] belongs 243.5 ± 3.8 J/K/mol.

The data set is the same for the next values; noted with them: 305.15 K; 101.33 kPa; Liquid; Large sample (1 g) DSC.
In the case of `CCCCCCOCCOCCO` [2-(2-hexyloxyethoxy)ethanol], the “molar heat capacity at constant pressure” value is 424.2 ± 6.6 J/K/mol.
As to `COCCOCCO` [2-(2-methoxyethoxy)ethanol], the “molar heat capacity at constant pressure” value was 269.3 ± 4.2 J/K/mol.
For `CCCOCCOCCO` [2-(2-propoxyethoxy)ethanol], the “molar heat capacity at constant pressure” value is given as 332 ± 5.1 J/K/mol.
On to `COCCOCCOCCO` [2-[2-(2-methoxyethoxy)ethoxy]ethanol], for which the “molar heat capacity at constant pressure” value was 358.1 ± 5.5 J/K/mol.
As for `CCCCCCCCOCCOCCOCCO` [2-[2-[2-(octyloxy)ethoxy]ethoxy]ethanol], the “molar heat capacity at constant pressure” value worked out at 577.3 ± 8.9 J/K/mol.
Take `CCCCOCCO` [2-butoxyethan-1-ol]: the “molar heat capacity at constant pressure” value came out at 276.5 ± 4.3 J/K/mol.
For the compound `CCOCCO` [2-ethoxyethan-1-ol], the “molar heat capacity at constant pressure” value stood at 213.6 ± 3.3 J/K/mol.
`CCCOCCO` [2-propoxyethanol]: the “molar heat capacity at constant pressure” value is 244.4 ± 3.8 J/K/mol.
